From patent US9060928B2, “Tacrolimus injection preparation” (FUZHOU HARVESTER PHARMACEUTICAL R&D CO., LTD., priority 2009, dated 2015)

B1: 10% ovalbumin solution: 10% ovalbumin solution, positive control of the hypersensitivity test (protein, UniProt P01012 2-386, looked up)
Ovalbumin: GSIGAASMEFCFDVFKELKVHHANENIFYCPIAIMSALAMVYLGAKDSTRTQINKVVRFDKLPGFGDSIEAQCGTSVNVHSSLRDILNQITKPNDVYSFSLASRLYAEERYPILPEYLQCVKELYRGGLEPINFQTAADQARELINSWVESQTNGIIRNVLQPSSVDSQTAMVLVNAIVFKGLWEKAFKDEDTQAMPFRVTEQESKPVQMMYQIGLFRVASMASEKMKILELPFASGTMSMLVLLPDEVSGLEQLESIINFEKLTEWTSSNVMEERKIKVYLPRMKMEEKYNLTSVLMAMGITDVFSSSANLSGISSAESLKISQAVHAAHAEINEAGREVVGSAEAGVDAASVSEEFRADHPFLFCIKHIATNAVLFFGRCVSP

Tests used:
[1] = cited from earlier work
[2] = test system: guinea pigs; experiment: Hypersensitivity test in animals; type: in vivo
Procedure: 18 healthy guinea pigs weighed 250-350 g were divided into 3 groups (a test group, a negative control group, and a positive control group) of 6 animals each at random. […] In 15 min after the injection, the hypersensitive responses of the injected guinea pigs were observed. A positive response was determined if two or more of piloerection, dyspnea, or 3 cough sounds, or one of twitch, collapse or death appeared.

Molecule	Solubility in organic solvents ([1]; organic solvents (such as methanol, ethanol, or acetone))	Solubility in water ([1]; water)	Occurrence of hypersensitive response ([2]; guinea pigs, n = 6, intraperitoneal sensitization, intravenous boost at days 14 and 21, animals responding/total)	Hypersensitive response of positive control (in words) ([2]; in 1 min after two times of intravenous administration, 6 guinea pigs)
C=CC[C@@H]1/C=C(\C)C[C@H](C)C[C@H](OC)[C@H]2O[C@@](O)(C(=O)C(=O)N3CCCC[C@H]3C(=O)O[C@H](/C(C)=C/[C@@H]3CC[C@@H](O)[C@H](OC)C3)[C@H](C)[C@@H](O)CC1=O)[C@H](C)C[C@@H]2OC (relative stereo) [tacrolimus, [3S—[3R*[E(1S*,3S*,4S*)],4S*,5R*,8S*,9E,12R*,14R*,15S*,16R*,18S*,19S*,26aR*]]-5,6,8,11,12,13,14,15,16,17,18,19,24,25,26a-hexa-decahydro-5,19-dihydroxy-3-[2-(4-hydroxy-3-methoxycyclohexyl)-1-methylethenyl]-14,16-dimethoxy-4,10,12,18-tetramethyl-8-(2-propenyl)-15,19-epoxy-3H-pyrido[2,1-c][1,4]oxazacyclotricosene-1,7,20,21(4H,23H)-tetrone, monohydrate]	freely soluble	practically insoluble		
B1			6/6	cough, respiratory depression, and twitch to death occur to all of the 6 guinea pigs
